Test results taken from patent publication US9969726B2, “Metabotropic glutamate receptor negative allosteric modulators (NAMS) and uses thereof” (Sanford-Burnham Medical Research Institute, priority 2014, dated 2018).
Where two headings read alike, the source gives them in different places.

How the values were obtained:
[1] = molecular target: rat mGlu2 receptor (Rattus norvegicus (Rat), UniProt P31421); experiment: mGlu2 in vitro GIRK thallium flux assay; type: cell-based; conditions: NAM, EC80 glutamate, HEK-293 GIRK cells
Outline: (§1)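 Cells expressing rat mGlu2 or mGlu3 with GIRK, plated overnight at 37 °C. Test compounds (0.3% DMSO, 10-point 1:3 series) preincubated 2.5 or 60 min, then thallium buffer plus EC80 glutamate added. Fluorescence slope 5–15 s after addition, normalised to vehicle and maximal agonist, fitted by four-parameter logistic.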

[2] = molecular target: rat mGlu3 receptor (Rattus norvegicus (Rat), UniProt P31422); experiment: mGlu3 in vitro GIRK thallium flux assay; type: cell-based; conditions: NAM; 2.5 min compound incubation; EC80 glutamate; HEK-293 GIRK cells
Outline: as §1

[3] = Microsomal stability in vitro assay; type: in vitro ADME; conditions: rat liver microsomes 1 mg/mL, 4 μM compound, 2 mM NADPH
Method: Pooled rat liver microsomes (BD Biosciences, #452701) were preincubated with test compounds at 37.5° C. for 5 min in the absence of NADPH. The reaction was initiated by addition of NADPH and incubated under the same conditions. The final incubation concentrations were 4 μM test compound, 2 mM NADPH, and 1 mg/mL (total protein) liver microsomes in phosphate-buffered saline (PBS) at pH 7.4. One aliquot (100 μL) of the incubation mixture was withdrawn at 15 min time points and combined immediately with 100 μL of ACN/MeOH. After mixing, the sample was centrifuged at approximately 13000 rpm for 12 min. The supernatant was filtered and transferred into an autosampler vial and the amount of test compound was quantified using a Shimadzu LCMS 2010EV mass spectrometer. The change of the AUC (area under the curve) of the parent compound as a function of time was used as a measure of microsomal stability. Test compounds were run in duplicate with a positive control.

[4] = Plasma stability in vitro assay; type: in vitro ADME; conditions: rat plasma, 100 μM, 37.5° C.
Method: A 20 μL aliquot of a 10 mM solution in DMSO of the test compound was added to 2.0 mL of heparinized rat plasma (Lampire, P1-150N) to obtain a 100 μM final solution. The mixture was incubated for 1 h at 37.5° C. Aliquots of 100 μL were taken at 15 min intervals and diluted with 100 μL of MeOH/ACN. After mixing, the sample was centrifuged at approximately 13000 rpm for 12 min. The supernatant was filtered and transferred into an autosampler vial and the amount of test compound was quantified using the Shimadzu LCMS-2010EV system. The change of the AUC of the parent compound in function of time was used as a measure of plasma stability.

[5] = 2.5 min compound incubation, read-out: mGlu2 EC50 (μM) (2.5 min)
[6] = mGlu2 EC50 (μM) (60 min), 60 min compound incubation
[7] = read-out: mGlu2 EC50 (μM) (60 min), 60 min compound incubation

Sequence of rat mGlu3 receptor (P31422 23-879): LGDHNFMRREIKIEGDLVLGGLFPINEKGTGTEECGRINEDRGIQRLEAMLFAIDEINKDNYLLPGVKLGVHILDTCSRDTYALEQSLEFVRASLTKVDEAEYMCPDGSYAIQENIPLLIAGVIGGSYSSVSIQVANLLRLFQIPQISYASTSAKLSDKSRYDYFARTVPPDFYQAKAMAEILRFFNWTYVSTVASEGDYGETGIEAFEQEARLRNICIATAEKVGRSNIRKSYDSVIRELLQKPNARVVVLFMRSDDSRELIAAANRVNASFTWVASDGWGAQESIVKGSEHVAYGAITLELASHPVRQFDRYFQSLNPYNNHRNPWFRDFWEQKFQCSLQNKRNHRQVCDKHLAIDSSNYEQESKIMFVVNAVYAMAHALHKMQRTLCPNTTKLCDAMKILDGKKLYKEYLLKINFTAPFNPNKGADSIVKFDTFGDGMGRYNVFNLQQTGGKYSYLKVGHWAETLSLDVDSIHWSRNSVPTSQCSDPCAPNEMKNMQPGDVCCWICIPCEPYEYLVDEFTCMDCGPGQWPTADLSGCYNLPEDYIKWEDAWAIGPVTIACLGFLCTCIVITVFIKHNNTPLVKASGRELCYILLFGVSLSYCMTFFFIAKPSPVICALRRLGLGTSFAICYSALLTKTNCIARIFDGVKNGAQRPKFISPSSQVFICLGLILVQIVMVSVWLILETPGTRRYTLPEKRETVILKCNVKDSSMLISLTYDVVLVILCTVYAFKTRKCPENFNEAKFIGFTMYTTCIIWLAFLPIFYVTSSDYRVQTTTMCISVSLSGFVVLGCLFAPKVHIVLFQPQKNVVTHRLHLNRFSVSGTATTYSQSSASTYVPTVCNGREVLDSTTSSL
Sequence of rat mGlu2 receptor (P31421 19-872): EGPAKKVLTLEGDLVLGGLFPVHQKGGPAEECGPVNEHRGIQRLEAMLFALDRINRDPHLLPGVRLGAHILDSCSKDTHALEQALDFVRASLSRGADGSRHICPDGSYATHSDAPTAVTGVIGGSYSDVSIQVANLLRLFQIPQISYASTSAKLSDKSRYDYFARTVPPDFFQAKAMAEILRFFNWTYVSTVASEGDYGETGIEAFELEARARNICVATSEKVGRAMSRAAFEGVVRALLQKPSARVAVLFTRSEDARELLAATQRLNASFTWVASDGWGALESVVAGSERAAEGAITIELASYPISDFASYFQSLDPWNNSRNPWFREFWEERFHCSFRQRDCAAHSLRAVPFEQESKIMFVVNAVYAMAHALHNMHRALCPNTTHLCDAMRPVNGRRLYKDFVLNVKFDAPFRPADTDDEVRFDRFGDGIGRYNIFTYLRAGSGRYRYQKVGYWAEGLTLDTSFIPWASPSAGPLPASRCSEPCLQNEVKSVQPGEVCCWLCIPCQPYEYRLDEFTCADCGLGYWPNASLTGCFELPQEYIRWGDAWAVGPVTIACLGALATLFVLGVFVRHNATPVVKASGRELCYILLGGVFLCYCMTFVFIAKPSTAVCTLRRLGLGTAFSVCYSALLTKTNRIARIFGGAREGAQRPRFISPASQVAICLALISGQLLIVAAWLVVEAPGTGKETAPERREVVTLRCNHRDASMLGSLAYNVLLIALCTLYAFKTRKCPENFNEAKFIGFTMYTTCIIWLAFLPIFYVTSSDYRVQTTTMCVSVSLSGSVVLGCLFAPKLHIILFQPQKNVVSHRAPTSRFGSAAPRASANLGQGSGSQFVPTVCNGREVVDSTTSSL

O=C(O)c1cc(F)cc(-c2cccc(-c3csc(-c4ccccc4)n3)c2)c1 [Example 9, 5-Fluoro-3′-(2-phenylthiazol-4-yl)biphenyl-3-carboxylic Acid]
EC50 [1, 5]: 0.64 µM | EC50 [1, 6]: 0.35 µM | EC50 [2]: > 10 µM | Microsomal Stability, Percent Remaining @ 1 hour [3]: 4% | Plasma Stability, Percent Remaining @ 1 hour [4]: 98%

O=C(O)c1cc(-c2cccc(-c3csc(-c4ccccc4)n3)c2)ccc1F [Example 1, 4-Fluoro-3′-(2-phenylthiazol-4-yl)biphenyl-3-carboxylic Acid]
EC50 [1, 5]: 0.33 µM | EC50 [1, 6]: 0.48 µM | EC50 [2]: 1.21 µM | Microsomal Stability, Percent Remaining @ 1 hour [3]: 3% | Plasma Stability, Percent Remaining @ 1 hour [4]: 93%

O=C1CC(c2cccc(-c3cccnc3)c2)=Nc2ccc(Br)cc2N1 [Example 179, 8-Bromo-4-(3-(pyridin-3-yl)phenyl)-1,3-dihydro-2H-benzo[b][1,4]diazepin-2-one]
EC50 [1, 5]: 2.74 µM | EC50 [1, 7]: 0.02 µM | EC50 [2]: 1.37 µM | Microsomal Stability, Percent Remaining @ 1 hour [3]: 30% | Plasma Stability, Percent Remaining @ 1 hour [4]: 100%

O=C(O)c1ccc(F)c(-c2cccc(-c3nc(-c4ccoc4)cc(C(F)(F)F)n3)c2)c1 [Example 114, 6-Fluoro-3′-(4-(furan-3-yl)-6-(trifluoromethyl)pyrimidin-2-yl)biphenyl-3-carboxylic Acid]
EC50 [1, 5]: 0.4 µM | EC50 [2]: 1.36 µM | Microsomal Stability, Percent Remaining @ 1 hour [3]: 66% | Plasma Stability, Percent Remaining @ 1 hour [4]: 93%

O=C(O)c1ccc(F)c(-c2cccc(-c3nc(-c4ccc(C(F)(F)F)nc4)cc(C(F)(F)F)n3)c2)c1 [Example 79, 6-Fluoro-3′-(4-(trifluoromethyl)-6-(6-(trifluoromethyl)pyridin-3-yl)pyrimidin-2-yl)biphenyl-3-carboxylic Acid]
EC50 [1, 5]: 0.83 µM | EC50 [1, 7]: 0.09 µM | EC50 [2]: 0.89 µM | Microsomal Stability, Percent Remaining @ 1 hour [3]: 82% | Plasma Stability, Percent Remaining @ 1 hour [4]: 86%

O=C(O)c1cc(-c2cccc(-c3nc(-c4ccccc4)cc(C(F)(F)F)n3)c2)ccc1F [Example 86, 4-Fluoro-3′-(4-phenyl-6-(trifluoromethyl)pyrimidin-2-yl)biphenyl-3-carboxylic Acid]
EC50 [1, 5]: 0.8 µM | EC50 [1, 7]: 0.04 µM | EC50 [2]: 0.92 µM | Microsomal Stability, Percent Remaining @ 1 hour [3]: 100% | Plasma Stability, Percent Remaining @ 1 hour [4]: 100%

O=C(O)c1cc(F)cc(-c2cccc(-c3nc(-c4ccco4)cc(C(F)(F)F)n3)c2)c1 [Example 89, 5-Fluoro-3′-(4-(furan-2-yl)-6-(trifluoromethyl)pyrimidin-2-yl)biphenyl-3-carboxylic Acid]
EC50 [1, 5]: 1.24 µM | EC50 [1, 7]: 0.14 µM | EC50 [2]: 2.25 µM | Microsomal Stability, Percent Remaining @ 1 hour [3]: 82% | Plasma Stability, Percent Remaining @ 1 hour [4]: 100%

O=C(O)c1cc(-c2cccc(-c3nc(-c4ccsc4)cc(C(F)(F)F)n3)c2)ccc1F [Example 122, 4-Fluoro-3′-(4-(thiophen-3-yl)-6-(trifluoromethyl)pyrimidin-2-yl)-[1,1′-biphenyl]-3-carboxylic Acid]
EC50 [1, 7]: 0.07 µM | EC50 [2]: 0.53 µM | Microsomal Stability, Percent Remaining @ 1 hour [3]: 83% | Plasma Stability, Percent Remaining @ 1 hour [4]: 83%

N#Cc1cc(C2=Nc3ccc(C(F)(F)F)cc3NC(=O)C2)ccn1 [Example 184, 4-(2-Oxo-8-(trifluoromethyl)-2,3-dihydro-H-benzo[b][1,4]diazepin-4-yl)picolinonitrile]
EC50 [1, 5]: 0.49 µM | EC50 [1, 7]: 0.07 µM | EC50 [2]: 0.41 µM | Microsomal Stability, Percent Remaining @ 1 hour [3]: 97% | Plasma Stability, Percent Remaining @ 1 hour [4]: 100%

O=C(O)c1cc(-c2cccc(-c3nc(-c4ccc(Cl)cc4F)cc(C(F)(F)F)n3)c2)ccc1F [Example 110, 3′-(4-(4-Chloro-2-fluorophenyl)-6-(trifluoromethyl)pyrimidin-2-yl)-4-fluorobiphenyl-3-carboxylic Acid]
EC50 [1, 5]: 4.08 µM | EC50 [1, 7]: 0.65 µM | EC50 [2]: 5.34 µM

O=C(O)c1cccc(-c2cccc(-c3nc(-c4ccoc4)cc(C(F)(F)F)n3)c2)c1 [Example 115, 3′-(4-(Furan-3-yl)-6-(trifluoromethyl)pyrimidin-2-yl)biphenyl-3-carboxylic acid]
EC50 [1, 5]: 0.28 µM | EC50 [1, 7]: 0.12 µM | EC50 [2]: 0.96 µM

Cn1nc(-c2cccc(-c3cccc(C(=O)O)c3)c2)nc1-c1ccccc1 [Example 50, 3′-(1-Methyl-5-phenyl-1H-1,2,4-triazol-3-yl)-[1,1′-biphenyl]-3-carboxylic Acid]
EC50 [1, 5]: 0.59 µM | EC50 [1, 6]: 1.48 µM | EC50 [2]: > 10 µM

O=C(O)c1cccc(-c2cccc(-c3csc(-c4ccc5c(c4)OCCO5)n3)c2)c1 [Example 34, 3-[3-(2-(2H,3H-benzo[e]1,4-dioxin-6-yl)-1,3-thiazol-4-yl)phenyl]benzoic acid]
EC50 [1, 5]: > 10 µM | EC50 [1, 7]: 0.28 µM | EC50 [2]: > 10 µM

O=C(O)c1cc(-c2cccc(-c3csc(-c4ccc(C(F)(F)F)nc4)n3)c2)ccc1F [Example 5, 4-Fluoro-3′-(2-(6-(trifluoromethyl)pyridin-3-yl)thiazol-4-yl)biphenyl-3-carboxylic Acid]
EC50 [1, 5]: 1.35 µM | EC50 [1, 6]: 0.85 µM | EC50 [2]: 3.11 µM

N#Cc1cc(C2=Nc3ccc(F)cc3NC(=O)C2)ccn1 [Example 180, 4-(8-Fluoro-2-oxo-2,3-dihydro-1H-benzo[b][1,4]diazepin-4-yl)picolinonitrile]
EC50 [1, 5]: 0.88 µM | EC50 [1, 7]: 0.31 µM | EC50 [2]: 0.86 µM

O=C(O)c1cccc(-c2cccc(-c3nc(-c4ccccc4)n(Cc4ccccc4)n3)c2)c1 [Example 54, 3′-(1-Benzyl-5-phenyl-1H-1,2,4-triazol-3-yl)-[1,1′-biphenyl]-3-carboxylic Acid]
EC50 [1, 5]: > 10 µM | EC50 [1, 6]: 2.71 µM | EC50 [2]: 3.9 µM

O=C(NO)c1cc(-c2cccc(-c3nc(-c4ccoc4)cc(C(F)(F)F)n3)c2)ccc1F [Example 131, 4-Fluoro-3′-(4-(furan-3-yl)-6-(trifluoromethyl)pyrimidin-2-yl)-N-hydroxy-[1,1′-biphenyl]-3-carboxamide]
EC50 [1, 5]: > 10 µM | EC50 [1, 7]: 3.36 µM | EC50 [2]: > 10 µM

O=C1CC(c2ccnc(Cl)c2)=Nc2ccc(-c3ccc(Br)nc3)cc2N1 [Example 199, 8-(6-Bromopyridin-3-yl)-4-(2-chloropyridin-4-yl)-1,3-dihydro-2H-benzo[b][1,4]diazepin-2-one]
EC50 [1, 5]: 1.7 µM | EC50 [1, 7]: 4.27 µM | EC50 [2]: 1.82 µM

O=C(O)c1ccc(-c2cccc(-c3nc(-c4ccc(C(F)(F)F)nc4)cc(C(F)(F)F)n3)c2)cc1 [Example 71, 3′-(4-(Trifluoromethyl)-6-(6-(trifluoromethyl)pyridin-3-yl)pyrimidin-2-yl)biphenyl-4-carboxylic Acid]
EC50 [1, 5]: > 10 µM | EC50 [1, 7]: > 10 µM | EC50 [2]: > 10 µM

Cc1cc(C)cc(-c2cc(C(F)(F)F)nc(-c3cccc(-c4ccc(F)c(C(=O)O)c4)c3)n2)c1 [Example 93, 3′-(4-(3,5-Dimethylphenyl)-6-(trifluoromethyl)pyrimidin-2-yl)-4-fluorobiphenyl-3-carboxylic Acid]
EC50 [1, 5]: > 10 µM | EC50 [1, 7]: 1.6 µM | EC50 [2]: > 10 µM

O=C(O)c1cccc(-c2cccc(-c3noc(-c4ccccc4)n3)c2)c1 [Example 48, 3′-(5-Phenyl-1,2,4-oxadiazol-3-yl)-[1,1′-biphenyl]-3-carboxylic Acid]
EC50 [1, 5]: 1.33 µM | EC50 [1, 6]: 0.79 µM | EC50 [2]: > 10 µM
